“Also recorded” adds a separate entry of the source.
Columns and labels:
[1] = test system: HBE4 cells; assay: Trans-well invasion assay; format: cell-based, human; conditions: HBE4, 12 hrs, vs Scr, after 15% downward adjustment
From the text: (§1) We then tested the potential impact of piR-L-163 in cell migration and invasion, two of the properties involving ERM's biological functions (Fehon, R. G., Mclatchey, A. I. & Bretscher, A. Organizing the cell cortex: the role of ERM proteins. Nat Rev Mol Cell Biol. 11, 276-287 (2010); Hunter, K. W. Ezrin, a key component in tumor metastasis. Trends Mol. Med. 10, 201-204 (2004); Luo, Y. et al. Recognition of CD146 as an ERM-binding protein offers novel mechanisms for melanoma cell migration. Oncogene 31, 306-321 (2013); Clucas, J. & Valderrama, F. ERM proteins in cancer progression. J Cell Sci. 128, 1253 (2015)).
(§2) Briefly, 24 hrs after transfection, 6×10^4 cells were placed in the upper chamber of Matrigel Invasion Chambers (BD Bioscience) with growth factor-free Keratinocyte-SFM and the bottom chamber were exposed to Keratinocyte-SFM medium supplemented with L-Glutamine, prequalified human recombinant EGF 1-53 and BPE. Invading cells were evaluated after 12 hrs according to the manufacturer's instruction. The numbers of invading cells were adjusted 15% downwards for Ant-163 treated cells or 15% upwards for piR-L-163 treated cells to compensate the differences for the proliferation rates.

[2] = test system: H1792 cells; assay: Trans-well invasion assay; format: cell-based, human; conditions: H1792, vs control RNA oligonucleotides
From the text: as §1, §2

[3] = test system: HBE4 cells; assay: Quantitative cell migration assay; format: cell-based, human; conditions: HBE4, vs Scr control
From the text: (§3) For cell migration, we used two complementary assays. […] To compensate potential differences in the cell numbers among different treatment conditions, we seeded 10% less cells for Ant-163 treated HBE4 cells and 10% more cells for piR-L-163 transfected H1792 cells.
(§4) Two complimentary methods were used. For quantitative fluorescent dye assay, Innocyto™ Cell migration Assay kit (EMD Millipore) was used. Briefly, 24 hrs after treatment, 1×10^5 cells (10% less for Ant-163 treated cells or 10% more for piR-L-163 treated cells) were loaded to the upper chamber with growth factor-free Keratinocyte-SFM for (HBE4 cells) or serum-free DMEM (for H1792 cells) with the bottom chamber exposed to completed culture medium. Negative controls were used with 3 μM Latrunculin A. After 12 hrs incubation, fluorescence was measured using a fluorescence plate reader 485 nm (excitation) and 520 nm (emission) according to the manufacturer's instruction. For wound-healing assay, cells (24 hrs after treatment with different DNA or RNA oligonucleotides) were grown to confluence followed by scratching with a pipette tip to create a gap. The floating cells were removed and the gaps were monitored/photographed every 12 hrs.

[4] = test system: p-ERM; assay: IP with anti-p-ERM antibody followed by RT-PCR in transfected H1792 cells; format: binding, human; conditions: H1792 cells transfected with the oligonucleotide
From the text: We next wanted to determine the site critical for piR-L-163's binding toP-ERM. We first analyzed the piR-L-163 sequence and identified a candidate motif “UUNNUUUNNUU” (SEQ ID NO:495) with potentially critical for the binding (FIG. 5a). We then generated 5 mutant forms of piR-L-163 named as M1-M5 (FIG. 5b and Table 3) to test their potential impact on the p-ERM binding. For this experiment, we used H1792 cells because these cells expressed extremely low level of endogenous piR-L-163 but considerable amount of p-ERM (FIG. 5c and FIG. 11a). H1792 cells were transfected with Scr (control), Ant-163, piR-L-163 (WT), or Mutant 1 (M1) to Mutant 5 (M5) RNA oligonucletides, respectively. An anti-p-ERM antibody was used for IP followed by RT-PCR using primers specific for Scr, Ant-163, piR-L-163, or M1-M5 (Table 6) to detect the corresponding oligonucleotides.
To amplify sncRNAs, we added an adaptor to the 3′ end, a process including adaptor ligation, RT and PCR (de Vanssay, A. et al. Paramutation in Drosophila linked to emergence of a piRNA-producing locus. Nature 490, 112-115 (2012); Li, Z. et al. Characterization of viral and human RNAs smaller than canonical MicroRNAs. J Virol. 83, 12751-12758 (2009)). For adaptor ligation, the adaptor /5′rapp/CTGTAGGCACCATCAAT/3′ddc/ (SEQ ID NO:499) with both 5′ and 3′ modification was used. Briefly, mixed 1 μl (10 pmol, ˜55 ng) of RNA 3′ adaptor and 4.4 μl (˜100 ng) of purified sncRNAs in a 1.5 ml EP tube; Incubated at 72° C. for 2 min, then placed on ice immediately and kept it on ice for at least 1 min; Added the following reagents (New England Biolabs) to the above tube: 0.8 μl 10×RNA ligase buffer, 1 μl RNase inhibitor, and 1 μl single strand RNA ligase; Mixed it well and incubated at 37° C. for 1 hr, then terminated the reaction at 65° C. for 15 min. For RT, SuperScript™ III First-Strand Synthesis System (Invitrogen) was used according to the manufacturer's instructions with gene specific primer (5′-[…]-3′) (SEQ ID NO:500). For PCR, a common reverse primer (5′-[…]-3′) (SEQ ID NO:501) and primers specific for individual sncRNAs (Table 6). Amplification conditions were denaturation at 95° C. for 30 s (5 min for the first cycle), annealing at 60° C. for 20 s and extension at 72° C. for 20 s (2 min for the last cycle) for 25 cycles.
For IP using anti-human Moesin or p-ERM antibodies, anti-Moesin (Clone Q480, Catalog No. 3150, Cell Signaling) or anti-p-ERM (Clone 41A3, Catalog No. 3149, Cell Signaling) antibodies were used and a rabbit IgG was used as a control. Briefly, Saturated protein G agarose beads (Sigma-Aldrich) with rabbit IgG, anti-Moesin or anti-p-ERM antibodies, respectively (1 μg antibody was used for 4 μl agarose beads) at 4° C. for 3 hrs, centrifuged at 2,200×g for 5 min, and discarded the upper aqueous phase; (2) Protein extracts prepared from cells using lysis buffer (20 mM Tris-cl, pH7.6, 150 mM NaCl, 20 mM KCl, 1.5 mM MgCl2, 0.5% NP-40, 0.5 mM PMSF) were pre-cleared using protein G agarose at 4° C. for 2 hrs, centrifuged at 2,200×g for 5 min, and transferred the upper aqueous phase to above tubes with agarose beads saturated with antibodies, respectively; Kept the tubes rotating overnight at 4° C., centrifuged at 2,200×g for 5 min, and washed the beads with lysis buffer twice; Extracted total RNAs from beads using Trizol Reagent (Life Technologies); Amplification of piR-L-163 or its mutants was performed according to the steps described in the “RT-PCR” section.

[5] = test system: H1792 cells; assay: Quantitative cell migration assay; format: cell-based, human; conditions: H1792, vs Scr or Ant-163
From the text: as §3, §4

| Substance | invasion capability [1] | invasion capability [2] | cell migration [3] | oligonucleotide detected by RT-PCR in anti-p-ERM IP products (binding to p-ERM) [4] | cell migration [5] |
| --- | --- | --- | --- | --- | --- |
| Ant-163: DNA sequence antisense to piR-L-163, SEQ ID NO:496, 5′-GGTCAGAGAATCAAAGTAACATCATGATAT-3′ (DNA, backbone and methylation of C not given here) | significantly increased invasion capability; also recorded: increased invading cells | no impact | significantly increased cell migration | no RT-PCR band could be detected |  |
| piR-L-163: sprRNA, SEQ ID NO:282; piRNA-L aligned to intron 10 of LAMC2; AUAUCAUGAUGUUACUUUGAUUCUCUGACC with 3′ 2′-O-methylation (listed as RNA, chemistry not fully specified; listed as Homo sapiens) |  | significantly decreased invasion capability; also recorded: significantly reduced the number of invading cells |  | strong RT-PCR band was detected | significantly decreased cell migration |

From US10889812B2, “Short non-coding protein regulatory RNAs (sprRNAs) and methods of use” (University of Maryland, Baltimore, priority 2014, dated 2021)
